Measured values from US20150274664A1 (MERCK SHARP & DOHME CORP., priority 2012, published 2015).
pEC50: −log10 of the molar value.

Each compound was assayed against T1, human SNP variant (S309L) of GPR119 (Homo sapiens, UniProt Q8TDV5, S309L) (assay: GPR119 signaling, cAMP homogenous time resolved fluorescence (HTRF) assay). Conditions: HEK293 Flp-In cells stably transfected with human GPR119 (S309L), HTRF kit.
T1 construct: expressed in transfected cells; host or cells: HEK293 Flp-In (Invitrogen)
T1 sequence (Q8TDV5 1-335 S309L): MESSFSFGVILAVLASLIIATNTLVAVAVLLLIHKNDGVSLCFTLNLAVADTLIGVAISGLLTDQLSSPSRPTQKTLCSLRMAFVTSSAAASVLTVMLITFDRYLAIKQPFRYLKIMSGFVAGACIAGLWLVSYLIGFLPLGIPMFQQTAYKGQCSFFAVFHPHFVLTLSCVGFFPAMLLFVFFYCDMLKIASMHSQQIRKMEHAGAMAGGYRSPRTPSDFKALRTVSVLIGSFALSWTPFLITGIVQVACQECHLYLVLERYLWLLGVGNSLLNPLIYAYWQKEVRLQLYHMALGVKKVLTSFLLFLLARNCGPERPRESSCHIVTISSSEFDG
Format: cell-based
Description: Measurement of GPR119 Signaling Using a Cyclic AMP (cAMP) Homogenous Time Resolved Fluorescence (HTRF) Assay
Chinese hamster ovary (CHO) cell lines stably transfected with the permissive guanine nucleotide binding protein alpha 15 (Gals) and murine GPR119 were maintained in DMEM media containing FBS, penicillin-streptomycin, puromycin, and G418 (geneticin). Alternatively, human embryonic kidney (HEK)293 Flp-In cells (Invitrogen, Carlsbad, Calif.) were stably transfected with a human SNP variant (S309L) of GPR119 and maintained in DMEM media containing FBS, penicillin-streptomycin, and hygromycin. Agonist activation of the GPR119 receptor was measured in receptor transfected cells described above, treated with compounds of this invention, using a commercial homogenous time resolved fluorescence (HTRF) kit for measurement of cAMP (CisBio, Bedford, Mass.). The assay was performed in 96-well half-volume plates (murine) or 384-well plates (human) following the manufacturers instructions. Briefly, suspended cells were incubated with a dose titration of test compound at RT for 60 min, lysed, and incubated with HTRF reagents for an additional 60 min. The plate was read using an Envision multilabel reader (Perkin Elmer) adjusted to read time resolved fluorescence and the cAMP concentrations were extrapolated from a cAMP calibration curve. […] The concentration of test compound required to stimulate a half-maximal response (EC50), and efficacy as compared to an internal agonist control, was determined from a sigmoidal 4-parameter curve fit of the resulting plot of normalized activity versus compound concentration.

pEC50 | Structure (SMILES)
8.32 | CS(=O)(=O)c1ccc(OCC[C@@H]2C[C@H]2C2CCN(c3nc(C4CCC4)no3)CC2)nc1 [Example 114, 3-cyclobutyl-5-(4-((1S,2S)-2-(2-((5-(methylsulfonyl)pyridin-2-yl)oxy)ethyl)cyclopropyl)piperidin-1-yl)-1,2,4-oxadiazole]
8.04 | CC(C)OC(=O)N1CCC([C@H]2C[C@@H]2COCc2ccc(S(C)(=O)=O)cc2)CC1 [Example 19, isopropyl 4-((1R,2S)-2-(((4-(methylsulfonyl)benzyl)oxy)methyl)cyclopropyl)piperidine-1-carboxylate]
8.15 | Cc1cnc(N2CCC([C@H]3C[C@@H]3COCc3ccc(S(C)(=O)=O)cc3)CC2)nc1 [Example 6, 5-methyl-2-(4-((1R,2S)-2-(((4-(methylsulfonyl)benzyl)oxy)methyl)cyclopropyl)piperidin-1-yl)pyrimidine]
8.19 | CC1(OC(=O)N2CCC([C@H]3C[C@@H]3COCc3ccc(S(C)(=O)=O)cc3)CC2)CC1 [Example 18, 1-methylcyclopropyl 4-((1R,2S)-2-(((4-(methylsulfonyl)benzyl)oxy)methyl)cyclopropyl)piperidine-1-carboxylate]
